Results as given in PubChem BioAssay AID1259407 (Chemical Carcinogenesis Research Information System (CCRIS), 2018).
The source made the active and inactive calls. How the calls were made is not given here.

Tested on: CCRIS mutagenicity, Ames/micronucleus/aberration tests
Assay: CCRIS mutagenicity studies
[1] = Test System: AMES SALMONELLA TYPHIMURIUM, Strain/Indicator: TA97, Metabolic Activation: HAMSTER, LIVER, S-9, AROCLOR 1254 (10%), Method: PREINCUBATION
[2] = Test System: AMES SALMONELLA TYPHIMURIUM, Strain/Indicator: TA97, Metabolic Activation: NONE, Method: PREINCUBATION
[3] = Test System: AMES SALMONELLA TYPHIMURIUM, Strain/Indicator: TA97, Metabolic Activation: RAT, LIVER, S-9, AROCLOR 1254 (10%), Method: PREINCUBATION
[4] = Test System: AMES SALMONELLA TYPHIMURIUM, Strain/Indicator: TA98, Metabolic Activation: HAMSTER, LIVER, S-9, AROCLOR 1254 (10%), Method: PREINCUBATION
[5] = Test System: AMES SALMONELLA TYPHIMURIUM, Strain/Indicator: TA98, Metabolic Activation: NONE, Method: PREINCUBATION
[6] = Test System: AMES SALMONELLA TYPHIMURIUM, Strain/Indicator: TA98, Metabolic Activation: RAT, LIVER, S-9, AROCLOR 1254 (10%), Method: PREINCUBATION
[7] = Test System: AMES SALMONELLA TYPHIMURIUM, Strain/Indicator: TA100, Metabolic Activation: HAMSTER, LIVER, S-9, AROCLOR 1254 (10%), Method: PREINCUBATION
[8] = Test System: AMES SALMONELLA TYPHIMURIUM, Strain/Indicator: TA100, Metabolic Activation: NONE, Method: PREINCUBATION
[9] = Test System: AMES SALMONELLA TYPHIMURIUM, Strain/Indicator: TA100, Metabolic Activation: RAT, LIVER, S-9, AROCLOR 1254 (10%), Method: PREINCUBATION
[10] = Test System: AMES SALMONELLA TYPHIMURIUM, Strain/Indicator: TA1535, Metabolic Activation: HAMSTER, LIVER, S-9, AROCLOR 1254 (10%), Method: PREINCUBATION
[11] = Test System: AMES SALMONELLA TYPHIMURIUM, Strain/Indicator: TA1535, Metabolic Activation: NONE, Method: PREINCUBATION
[12] = Test System: AMES SALMONELLA TYPHIMURIUM, Strain/Indicator: TA1535, Metabolic Activation: RAT, LIVER, S-9, AROCLOR 1254 (10%), Method: PREINCUBATION
[13] = Test System: AMES SALMONELLA TYPHIMURIUM, Strain/Indicator: TA98, Metabolic Activation: NONE, Method: STANDARD PLATE
[14] = Test System: AMES SALMONELLA TYPHIMURIUM, Strain/Indicator: TA98, Metabolic Activation: RAT, LIVER, S-9, AROCLOR 1254, Method: STANDARD PLATE
[15] = Test System: AMES SALMONELLA TYPHIMURIUM, Strain/Indicator: TA100, Metabolic Activation: NONE, Method: STANDARD PLATE
[16] = Test System: AMES SALMONELLA TYPHIMURIUM, Strain/Indicator: TA100, Metabolic Activation: RAT, LIVER, S-9, AROCLOR 1254, Method: STANDARD PLATE
[17] = Test System: AMES SALMONELLA TYPHIMURIUM, Strain/Indicator: TA1535, Metabolic Activation: NONE, Method: STANDARD PLATE
[18] = Test System: AMES SALMONELLA TYPHIMURIUM, Strain/Indicator: TA1535, Metabolic Activation: RAT, LIVER, S-9, AROCLOR 1254, Method: STANDARD PLATE
[19] = Test System: AMES SALMONELLA TYPHIMURIUM, Strain/Indicator: TA1537, Metabolic Activation: NONE, Method: STANDARD PLATE
[20] = Test System: AMES SALMONELLA TYPHIMURIUM, Strain/Indicator: TA1537, Metabolic Activation: RAT, LIVER, S-9, AROCLOR 1254, Method: STANDARD PLATE

Structure (SMILES): Nc1ccc(Cl)cc1N
- mutagenic call (End Point: IN VITRO CHROMOSOMAL ABERRATIONS, Test System: CHL CELLS, Metabolic Activation: NONE): active; positive (structural changes)
- mutagenic call (End Point: IN VITRO CHROMOSOMAL ABERRATIONS, Test System: CHL CELLS, Metabolic Activation: RAT, LIVER, S-9, SODIUM PHENOBARBITAL AND 5,6-BENZOFLAVONE): active; positive (structural changes)
- mutagenic call (End Point: IN VITRO CHROMOSOMAL ABERRATIONS, Test System: CHO-LB CELLS, Metabolic Activation: NONE): active; positive
- mutagenic call (End Point: IN VITRO CHROMOSOMAL ABERRATIONS, Test System: CHO-LB CELLS, Metabolic Activation: RAT, LIVER, S-9, AROCLOR 1254): inactive; negative
- mutagenic call (End Point: IN VIVO MICRONUCLEUS, Test System: HEPATOCYTES, Species: RAT, Strain/Sex: FISHER 344 OR SD/MALE, Route: ORAL OR IP): inactive; negative
- mutagenic call (End Point: IN VIVO MICRONUCLEUS, Test System: PERIPHERAL BLOOD RETICULOCYTES, Species: RAT, Strain/Sex: FISHER 344 OR SD/MALE, Route: ORAL OR IP): inactive; negative
- mutagenic call [1]: active; positive
- mutagenic call [2]: inactive; negative
- mutagenic call [3]: active; positive
- mutagenic call [4]: active; positive
- mutagenic call [5]: inactive; negative
- mutagenic call [6]: active; positive
- mutagenic call (Test System: AMES SALMONELLA TYPHIMURIUM, Strain/Indicator: TA98, Metabolic Activation: RAT, LIVER, S-9, PCB, Method: PREINCUBATION): active; positive
- mutagenic call [7]: active; positive
- mutagenic call [8]: inactive; negative
- mutagenic call [9]: active; positive
- mutagenic call (Test System: AMES SALMONELLA TYPHIMURIUM, Strain/Indicator: TA100, Metabolic Activation: RAT, LIVER, S-9, PCB, Method: PREINCUBATION): active; positive
- mutagenic call [10]: inactive; negative
- mutagenic call [11]: inactive; negative
- mutagenic call [12]: inactive; negative
- mutagenic call (Test System: E. COLI, Strain/Indicator: WP2 UVRA, Metabolic Activation: HAMSTER, LIVER, S-9, AROCLOR 1254, Method: STANDARD PLATE): inactive; negative
- mutagenic call (Test System: E. COLI, Strain/Indicator: WP2 UVRA, Metabolic Activation: MOUSE, LIVER, S-9, AROCLOR 1254, Method: STANDARD PLATE): inactive; negative
- mutagenic call (Test System: E. COLI, Strain/Indicator: WP2 UVRA, Metabolic Activation: MOUSE, LIVER, S-9, Method: STANDARD PLATE): inactive; negative
- mutagenic call (Test System: E. COLI, Strain/Indicator: WP2 UVRA, Metabolic Activation: NONE, Method: STANDARD PLATE): inactive; negative
- mutagenic call (Test System: E. COLI, Strain/Indicator: WP2 UVRA, Metabolic Activation: RAT, LIVER, S-9, Method: STANDARD PLATE): inactive; negative
- mutagenic call (Test System: UDS RODENT HEPATOCYTES, Strain/Indicator: THY INCORP (NON-S-PHASE), Metabolic Activation: NONE, Method: AUTORADIOGRAPHY): active; positive

Structure (SMILES): FC(F)(F)c1ccccc1Cl
- mutagenic call [1]: inactive; negative
- mutagenic call (Test System: AMES SALMONELLA TYPHIMURIUM, Strain/Indicator: TA97, Metabolic Activation: HAMSTER, LIVER, S-9, AROCLOR 1254 (30%), Method: PREINCUBATION): inactive; negative
- mutagenic call [2]: inactive; negative
- mutagenic call [3]: inactive; negative
- mutagenic call (Test System: AMES SALMONELLA TYPHIMURIUM, Strain/Indicator: TA97, Metabolic Activation: RAT, LIVER, S-9, AROCLOR 1254 (30%), Method: PREINCUBATION): inactive; negative
- mutagenic call [4]: inactive; negative
- mutagenic call (Test System: AMES SALMONELLA TYPHIMURIUM, Strain/Indicator: TA98, Metabolic Activation: HAMSTER, LIVER, S-9, AROCLOR 1254 (30%), Method: PREINCUBATION): inactive; negative
- mutagenic call [5]: inactive; negative
- mutagenic call [13]: inactive; negative
- mutagenic call [6]: inactive; negative
- mutagenic call (Test System: AMES SALMONELLA TYPHIMURIUM, Strain/Indicator: TA98, Metabolic Activation: RAT, LIVER, S-9, AROCLOR 1254 (30%), Method: PREINCUBATION): inactive; negative
- mutagenic call [14]: inactive; negative
- mutagenic call [7]: inactive; negative
- mutagenic call (Test System: AMES SALMONELLA TYPHIMURIUM, Strain/Indicator: TA100, Metabolic Activation: HAMSTER, LIVER, S-9, AROCLOR 1254 (30%), Method: PREINCUBATION): inactive; negative
- mutagenic call [8]: inactive; negative
- mutagenic call [15]: inactive; negative
- mutagenic call [9]: inactive; negative
- mutagenic call (Test System: AMES SALMONELLA TYPHIMURIUM, Strain/Indicator: TA100, Metabolic Activation: RAT, LIVER, S-9, AROCLOR 1254 (30%), Method: PREINCUBATION): inactive; negative
- mutagenic call [16]: inactive; negative
- mutagenic call [10]: inactive; negative
- mutagenic call (Test System: AMES SALMONELLA TYPHIMURIUM, Strain/Indicator: TA1535, Metabolic Activation: HAMSTER, LIVER, S-9, AROCLOR 1254 (30%), Method: PREINCUBATION): inactive; negative
- mutagenic call [11]: inactive; negative
- mutagenic call [17]: inactive; negative
- mutagenic call [12]: inactive; negative
- mutagenic call (Test System: AMES SALMONELLA TYPHIMURIUM, Strain/Indicator: TA1535, Metabolic Activation: RAT, LIVER, S-9, AROCLOR 1254 (30%), Method: PREINCUBATION): inactive; negative
- mutagenic call [18]: inactive; negative
- mutagenic call (Test System: AMES SALMONELLA TYPHIMURIUM, Strain/Indicator: TA1537, Metabolic Activation: HAMSTER, LIVER, S-9, AROCLOR 1254 (30%), Method: PREINCUBATION): inactive; negative
- mutagenic call (Test System: AMES SALMONELLA TYPHIMURIUM, Strain/Indicator: TA1537, Metabolic Activation: NONE, Method: PREINCUBATION): inactive; negative
- mutagenic call [19]: inactive; negative
- mutagenic call (Test System: AMES SALMONELLA TYPHIMURIUM, Strain/Indicator: TA1537, Metabolic Activation: RAT, LIVER, S-9, AROCLOR 1254 (30%), Method: PREINCUBATION): inactive; negative
- mutagenic call [20]: inactive; negative
- mutagenic call (Test System: AMES SALMONELLA TYPHIMURIUM, Strain/Indicator: TA1538, Metabolic Activation: NONE, Method: STANDARD PLATE): inactive; negative
- mutagenic call (Test System: AMES SALMONELLA TYPHIMURIUM, Strain/Indicator: TA1538, Metabolic Activation: RAT, LIVER, S-9, AROCLOR 1254, Method: STANDARD PLATE): inactive; negative

Structure (SMILES): O=[N+]([O-])c1cccc(OS(=O)(=O)c2cccc3cccnc23)c1
- mutagenic call [13]: inactive; negative
- mutagenic call [14]: active; positive
- mutagenic call [15]: inactive; negative
- mutagenic call [16]: active; positive
- mutagenic call [17]: inactive; negative
- mutagenic call [18]: inactive; negative
- mutagenic call [19]: inactive; negative
- mutagenic call [20]: inactive; negative
